This series is described as follows: Evaluation of the Tmax of Hydrochlorothiazide following oral administration of hydrochlorothiazide. It is filed as ADME, organism-based. To be noted: human, in vivo, dosed compound id 30, dosed compound name HYDROCHLOROTHIAZIDE, tissue Plasma.

The structures appear in SMILES notation.

By Tmax is commonly meant the time from dosing to the highest level.

With `NS(=O)(=O)c1cc2c(cc1Cl)NCNS2(=O)=O` [HYDROCHLOROTHIAZIDE], the Tmax was found to be 2 h.

Values taken from ChEMBL document CHEMBL3832040, “DailyMed|setid=dbe8d4f6-c338-4076-9ae9-2e86c0767226 | TRIAMTERENE AND HYDROCHLOROTHIAZIDE- triamterene and hydrochlorothiazide tablet|Aidarex Pharmaceuticals LLC”.
